The source of these data is article PMC4657038, “Large-Scale Computational Screening Identifies First in Class Multitarget Inhibitor of EGFR Kinase and BRD4” (Scientific Reports, 2015).

For experiment [1], the target named is T1, BRD4(1) (Homo sapiens, UniProt O60885). Nature of the experiment: BRD4(1) biochemical alphascreen assay (disruption of BRD4(1) binding to acetylated biotin-histone 4 peptide). Also on record: BRD4-BD1 (49–170, BPS Bio #31042) was stored at −80 °C; purchased BPS Bio 31042. The settings on record: for IC50: alpha screen, average, 9 concentrations in triplicate (n = 3), read-out: IC50 against BRD4(1). An excerpt: After searching multiple commercial providers for the top 108 compounds, Enamine LLC (http://www.enamine.net/) provided 24 compounds comprising 5 chemical scaffolds including substituted 2-pyrrolidinones, quinazolin-4-amines, thienopyrimidin-4-amines, and imidazolidinones (Supplementary Table 2). […] As illustrated, several compounds have confirmed activity against BRD4(1) and one compound, Z118332870 (2870), is active against BRD4 and EGFR kinase. Compounds that were not confirmed BRD4(1) actives were not tested in the EGFR assay because we were primarily interested in novel dual BRD4 and EGFR inhibitors. To evaluate small molecule BRD4 bromodomain binding, we utilized a biochemical alphascreen assay that measured disruption of BRD4(1) binding to pre-acetylated biotin-histone 4 peptide by proximity detection of the conjugated donor and acceptor beads via transient singlet oxygen. […] To validate results, a counter-screen assay (see Methods for details) was performed to ensure that compounds were not interacting with assay components other than recombinant BRD4(1) (Supplementary Figure 3).
The BRD4(1) alpha screen assay was performed with a pre-acetylated Biotin-Histone 4 Peptide [H4K5/8/12/16(Ac)] 1 – 21 (AnaSpec #64989-025, 0.25 mg). A 200 μM stock was made and stored at −80 °C. BRD4-BD1 (49–170, BPS Bio #31042) was stored at −80 °C at a concentration of 50 μM. All compounds used in assays were kept in a 10 mM stock at −80 °C, with I-BET151 being used as a control. The assay buffer contained 50 mM HEPES, 100 mM NaCl, and 0.1% BSA at a pH of 7.4, and was stored at 4 °C. 10% CHAPS (Sigma C3023) was added to the assay buffer before each experiment and was stored at room temperature.
Before use, assay buffer was equilibrated to room temperature and supplemented with 0.05% CHAPS. 3X His-BRD4-BD1 was diluted in assay buffer to 600 nM with a final concentration of 200 nM in a 12 μl reaction volume. 4 μl per well of 3X His-BRD4-BD1 was added to an OptiPlate-384 (Perkin Elmer #6007290) covered with Top Seal-A Film (Perkin Elmer #6005250) and pulsed at 900 × g. 3X BRD Inhibitors or DMSO vehicle was prepared in Assay Buffer starting at 300 μM and diluting 3X to 46 nM. 4 μl of buffer (positive control), 3X DMSO Vehicle, or 3X BRD Inhibitor (I-BET151 as control) were added to each well, sealed with Top Seal-A film and pulsed at 900 × g. The plate was then incubated at room temperature for 30 minutes. 3X Biotin-H4K4Ac was prepared by diluting stock in Assay Buffer to 600 nM, with a final concentration of 200 nM in a 12 μl reaction volume. 4 μl of Biotin-H4K4Ac was added per well, sealed and pulsed at 900 × g. The plate was then incubated at room temperature for another 30 minutes. AlphaLISA Nickel Chelate Acceptor Beads (Perkin Elmer #1547780, 5 mg/ml, 4 °C) and AlphaScreen Streptavidin Donor Beads (Perkin Elmer #6760002, 5 mg/ml, 4 °C) were prepared at 2.5X by diluting in Assay Buffer to 25 μg/ml with a final concentration of each bead equaling 10 μg/ml in a 20 μl reaction volume. 8 μl per well of Donor and Acceptor beads were added in the dark to each well, sealed, wrapped with foil to protect from light, and pulsed at 900 × g. The plate was then incubated at room temperature for 60 minutes and read on an EnVision instrument using Alpha Mode (680 excitiation/615 emission/read signal). Dose response curves were obtained and interpreted using GraphPad Prism software for curve fitting to obtain IC50 values. […]

Experiment [2] deals with T1, BRD4(1). Description: Differential scanning fluorimetry (DSF) with BRD4(1). Also on record: Bromodomain 1 (BRD4(1)) and Bromodomain 2 (BRD4(2)). It counts as binding. How it is done: The inhibitory activity of compound Z118332870 (2870) against BRD4(1) was assessed by DSF using a StepOnePlus Real-Time PCR system (Applied Biosystems). Purified BRD4(1) (4 μM final concentration; 10 mM HEPES (pH 7.5), 100 mM NaCl, and 1 mM DTT) was assayed, in triplicates, in a 96-well plate. Compound was added to a final concentration of 100 μM and 2% DMSO. Protein Thermal Shift Dye (1:8000; Applied Biosystems) was used as the fluorescent probe and fluorescence was measured using the ROX Reporter channel (620 nm). Protein stability was investigated by programing the thermocycler to increase the temperature from 25 °C to 99 °C using 0.2 °C increments and 10 second incubations per increment. The inflection point of the transition curve/melting temperature (Tm) was calculated using the Boltzmann equation within the Protein Thermal Shift Software (v.1.1) (Applied Biosystems). The ΔTm was calculated by using DMSO control wells as a reference.
For orientation: DSF heats the sample and reads unfolding from a dye or from intrinsic fluorescence.

Experiment [3] deals with EGFR (ERBB1) (Homo sapiens, UniProt P00533). Description: EGFR kinase activity enzyme assay (radioisotope filter binding, hotspot). It counts as biochemical.
Procedure: A radioisotope filter binding method was used in the EGFR kinase hotspot assay, performed by the Reaction Biology Corporation, LLC. The base reaction buffer was composed of 20 mM HEPES (pH 7.5); 10 mM MgCl2, 1 mM EGTA, 0.02% Brij35, 0.02 mg/mL BSA, 0.1 mM Na3VO4, 2 mM DTT, and 1% DMSO. The substrate was freshly prepared using the base reaction buffer. Kinase was added into the substrate solution at a concentration of 10 μM and gently mixed. Compounds were then added into the kinase reaction mixture. At this point, the ^33P-ATP was added into the reaction mixture to initiate the reaction. The reaction was incubated for 120 minutes at room temperature. After completion, reactions were spotted onto P81 ion exchange paper (Whatman #3698-915). Filters were then washed extensively in 0.75% Phosphoric acid and a scintillation counter was used to quantify the amount of radioactivity on the filter.
Experiment [4] has as its target ERBB4 (Homo sapiens, UniProt Q15303). Nature of the experiment: Kinase activity enzyme profiling, ERBB4. It counts as biochemical.
Experiment [5] has as its target ERBB2 (Homo sapiens, UniProt P04626). Nature of the experiment: Kinase activity enzyme profiling, ERBB2. It counts as biochemical.

Where “and” joins values, the source holds several entries; their conditions need not be identical. Equal values may be shown once. Read-outs that look alike come from different tables or passages of the source.

Sequence of ERBB4 (Q15303 26-1308): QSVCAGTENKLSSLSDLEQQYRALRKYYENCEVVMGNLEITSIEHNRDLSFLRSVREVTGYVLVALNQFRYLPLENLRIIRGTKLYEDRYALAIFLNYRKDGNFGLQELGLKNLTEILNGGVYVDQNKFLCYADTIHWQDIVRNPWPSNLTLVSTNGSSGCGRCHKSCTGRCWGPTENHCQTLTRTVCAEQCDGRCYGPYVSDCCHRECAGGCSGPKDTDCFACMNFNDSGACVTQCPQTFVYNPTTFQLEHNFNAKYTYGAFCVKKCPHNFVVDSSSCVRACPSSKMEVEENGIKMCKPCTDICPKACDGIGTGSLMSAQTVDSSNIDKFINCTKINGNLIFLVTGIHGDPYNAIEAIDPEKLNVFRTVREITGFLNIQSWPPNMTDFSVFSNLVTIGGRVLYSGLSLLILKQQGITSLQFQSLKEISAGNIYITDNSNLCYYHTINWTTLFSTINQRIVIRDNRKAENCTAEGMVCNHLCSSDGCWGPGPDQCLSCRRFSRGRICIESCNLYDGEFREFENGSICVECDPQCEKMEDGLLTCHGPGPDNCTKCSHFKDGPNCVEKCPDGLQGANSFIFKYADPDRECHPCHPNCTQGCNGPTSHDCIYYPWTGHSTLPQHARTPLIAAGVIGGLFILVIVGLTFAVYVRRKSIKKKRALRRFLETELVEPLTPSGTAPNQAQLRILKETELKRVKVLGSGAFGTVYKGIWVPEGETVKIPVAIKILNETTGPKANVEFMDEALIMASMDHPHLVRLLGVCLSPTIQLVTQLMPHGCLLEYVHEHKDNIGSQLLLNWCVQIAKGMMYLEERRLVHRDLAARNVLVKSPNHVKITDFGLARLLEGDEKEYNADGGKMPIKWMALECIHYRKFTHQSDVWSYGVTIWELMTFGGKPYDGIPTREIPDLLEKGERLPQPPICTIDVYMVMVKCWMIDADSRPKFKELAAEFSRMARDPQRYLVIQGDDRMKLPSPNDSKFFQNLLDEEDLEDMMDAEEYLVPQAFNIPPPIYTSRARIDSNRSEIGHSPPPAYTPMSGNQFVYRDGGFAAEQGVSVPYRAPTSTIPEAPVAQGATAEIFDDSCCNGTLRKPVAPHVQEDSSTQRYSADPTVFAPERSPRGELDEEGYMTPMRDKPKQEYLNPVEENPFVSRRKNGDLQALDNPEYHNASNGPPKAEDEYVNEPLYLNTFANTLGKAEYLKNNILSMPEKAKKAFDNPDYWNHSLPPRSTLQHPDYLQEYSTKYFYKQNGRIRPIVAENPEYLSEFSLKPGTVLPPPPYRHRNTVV
Sequence of EGFR (ERBB1) (P00533 25-1210): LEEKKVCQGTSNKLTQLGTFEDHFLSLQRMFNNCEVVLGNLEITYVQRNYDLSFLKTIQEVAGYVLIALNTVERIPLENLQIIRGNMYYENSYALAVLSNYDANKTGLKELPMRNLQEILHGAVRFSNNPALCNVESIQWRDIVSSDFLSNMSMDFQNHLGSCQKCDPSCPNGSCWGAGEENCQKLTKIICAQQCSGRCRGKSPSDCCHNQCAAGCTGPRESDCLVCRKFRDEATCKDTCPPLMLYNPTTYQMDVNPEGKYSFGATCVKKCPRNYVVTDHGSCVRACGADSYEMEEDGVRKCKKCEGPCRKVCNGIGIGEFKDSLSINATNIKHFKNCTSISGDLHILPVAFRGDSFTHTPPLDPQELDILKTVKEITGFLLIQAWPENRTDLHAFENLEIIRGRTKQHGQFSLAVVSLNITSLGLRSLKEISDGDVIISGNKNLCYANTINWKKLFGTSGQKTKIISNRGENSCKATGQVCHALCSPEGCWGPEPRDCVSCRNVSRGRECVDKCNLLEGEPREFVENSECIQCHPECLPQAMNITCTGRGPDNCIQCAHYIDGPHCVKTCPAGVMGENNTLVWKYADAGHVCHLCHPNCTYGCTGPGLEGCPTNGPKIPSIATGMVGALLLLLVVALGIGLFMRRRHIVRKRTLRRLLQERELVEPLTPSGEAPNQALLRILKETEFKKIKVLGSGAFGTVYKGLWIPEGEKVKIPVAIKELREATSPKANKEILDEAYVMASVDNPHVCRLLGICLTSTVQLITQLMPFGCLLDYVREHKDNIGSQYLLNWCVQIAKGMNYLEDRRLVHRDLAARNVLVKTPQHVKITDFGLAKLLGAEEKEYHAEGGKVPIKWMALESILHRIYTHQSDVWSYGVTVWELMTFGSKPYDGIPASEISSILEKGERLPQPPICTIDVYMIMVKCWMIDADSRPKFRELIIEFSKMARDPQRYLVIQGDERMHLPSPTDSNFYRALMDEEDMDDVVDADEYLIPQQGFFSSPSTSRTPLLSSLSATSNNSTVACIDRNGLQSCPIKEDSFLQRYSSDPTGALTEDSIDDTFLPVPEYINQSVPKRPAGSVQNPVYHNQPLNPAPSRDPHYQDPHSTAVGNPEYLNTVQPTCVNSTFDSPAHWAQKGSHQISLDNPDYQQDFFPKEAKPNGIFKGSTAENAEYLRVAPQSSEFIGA
Sequence of ERBB2 (P04626 23-1255): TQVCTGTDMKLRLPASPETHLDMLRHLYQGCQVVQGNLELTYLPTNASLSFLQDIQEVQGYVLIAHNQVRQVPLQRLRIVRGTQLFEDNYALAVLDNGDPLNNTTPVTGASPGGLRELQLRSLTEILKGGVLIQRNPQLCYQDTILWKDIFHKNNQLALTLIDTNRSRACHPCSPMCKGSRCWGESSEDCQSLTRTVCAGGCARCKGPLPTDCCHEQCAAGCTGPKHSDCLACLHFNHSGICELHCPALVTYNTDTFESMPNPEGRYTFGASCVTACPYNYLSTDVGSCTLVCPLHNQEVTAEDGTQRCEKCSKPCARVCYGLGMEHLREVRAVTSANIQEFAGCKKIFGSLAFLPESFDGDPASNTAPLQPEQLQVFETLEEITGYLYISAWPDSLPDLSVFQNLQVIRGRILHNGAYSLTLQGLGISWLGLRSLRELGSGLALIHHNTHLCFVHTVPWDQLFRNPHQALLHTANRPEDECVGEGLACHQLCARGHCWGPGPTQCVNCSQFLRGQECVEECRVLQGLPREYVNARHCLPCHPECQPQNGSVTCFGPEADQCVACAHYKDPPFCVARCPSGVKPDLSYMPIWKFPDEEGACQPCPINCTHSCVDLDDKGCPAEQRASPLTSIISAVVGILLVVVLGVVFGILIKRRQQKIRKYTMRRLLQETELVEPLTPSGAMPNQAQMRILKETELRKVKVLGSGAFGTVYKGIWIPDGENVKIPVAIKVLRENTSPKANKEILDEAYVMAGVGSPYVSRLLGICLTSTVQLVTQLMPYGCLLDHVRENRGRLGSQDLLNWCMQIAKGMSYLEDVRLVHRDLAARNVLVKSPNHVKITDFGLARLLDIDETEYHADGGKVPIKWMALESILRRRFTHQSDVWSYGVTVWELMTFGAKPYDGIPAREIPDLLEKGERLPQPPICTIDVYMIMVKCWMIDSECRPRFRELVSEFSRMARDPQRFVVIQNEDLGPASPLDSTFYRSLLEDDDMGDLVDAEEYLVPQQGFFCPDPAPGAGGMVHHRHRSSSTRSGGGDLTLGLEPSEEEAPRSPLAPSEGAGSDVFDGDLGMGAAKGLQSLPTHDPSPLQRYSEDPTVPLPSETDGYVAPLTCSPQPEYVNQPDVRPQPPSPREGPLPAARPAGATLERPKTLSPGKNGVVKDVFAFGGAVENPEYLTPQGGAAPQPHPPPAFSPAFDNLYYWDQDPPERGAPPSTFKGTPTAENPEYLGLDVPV

As a reminder, the IC50 is the concentration needed to halve the response being measured. `c1nc(NCCCN2CCOCC2)c2c3c(sc2n1)CCC3` [compound 0012]: in experiment [1], the “activity in BRD4(1) alphascreen assay (in words)” value (shortened to “activity”) was “Confirmed active” and the half-maximal inhibitory concentration (IC50) worked out at 17 µM.

A word on the ΔTm: it is the change in melting temperature against a reference sample. For `COc1cc2ncnc(NCCOc3ccccc3F)c2cc1OC` [compound 2870], in experiment [2] (DSF, compound 100 μM, BRD4(1) 4 μM, relative to DMSO), the ΔTm at 100 µM came out at 1.15 °C. Besides, the IC50 in experiment [2] (corresponds to ΔTm based on the standard curve, read-out: predicted IC50 from DSF standard curve) is 9.1 µM; in experiment [1], 9 µM and 9.02 µM; in experiment [3] (kinase enzyme activity assay, read-out: IC50 against EGFR), 0.0442 µM; in experiment [3] (radioisotope filter binding assay, substrate concentration 10 μM, n = 3, read-out: IC50 against EGFR kinase), 0.044 µM; in experiment [4] (kinase activity enzyme profiling, read-out: IC50 against ERBB4), 24.2 µM; in experiment [5] (kinase activity enzyme profiling, read-out: IC50 against ERBB2), 8.73 µM. Further, in experiment [1], the “activity” value is “Confirmed active”. Moreover, the “selectivity for EGFR over ERBB4” value in experiment [4] (EGFR vs ERBB4 IC50) turned out to be 500 fold. Besides, the “selectivity for EGFR over ERBB2” value in experiment [5] (EGFR vs ERBB2 IC50) is recorded as “about 200 fold”.

Turning to `COc1ccc(Br)cc1S(=O)(=O)Nc1cccc(N2CCCC2=O)c1` [compound 8302], the “activity” value in experiment [1] is “Confirmed active”.
